# Test results taken from PubChem BioAssay (NCI).
#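 Method: 48-hour compound exposure of cells in 96-well plates, five concentrations, linear interpolation of endpoints. TGI is the concentration that stops growth completely.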
# Tests used:
# Assay in all cases: NCI anticancer screen, dose series, 48 h
# SK-MEL-5 melanoma = tested on: SK-MEL-5 melanoma
# KM12 colon = tested on: KM12 colon
# PC-3 prostate = tested on: PC-3 prostate
# T-47D breast = tested on: T-47D breast
# HCT-116 colon = tested on: HCT-116 colon
# LOX IMVI melanoma = tested on: LOX IMVI melanoma
# UACC-62 melanoma = tested on: UACC-62 melanoma
# CCRF-CEM leukemia = tested on: CCRF-CEM leukemia
# UACC-257 melanoma = tested on: UACC-257 melanoma
# MALME-3M melanoma = tested on: MALME-3M melanoma
# MOLT-4 leukemia = tested on: MOLT-4 leukemia
# SK-OV-3 ovarian = tested on: SK-OV-3 ovarian
# A498 renal = tested on: A498 renal
# NCI-H460 lung = tested on: NCI-H460 lung
Structure (SMILES),TGI (SK-MEL-5 melanoma) [µM],TGI (KM12 colon) [µM],TGI (PC-3 prostate) [µM],TGI (T-47D breast) [µM],TGI (HCT-116 colon) [µM],TGI (LOX IMVI melanoma) [µM],TGI (UACC-62 melanoma) [µM],TGI (CCRF-CEM leukemia) [µM],TGI (UACC-257 melanoma) [µM],TGI (MALME-3M melanoma) [µM],TGI (MOLT-4 leukemia) [µM],TGI (SK-OV-3 ovarian) [µM],TGI (A498 renal) [µM],TGI (NCI-H460 lung) [µM]
O=c1c2c(oc3ccccc13)-c1ccccc1OC2,> 100,> 100,> 100,> 100,> 100,> 100,> 100,> 100,> 100,> 100,> 100,53.2,,
COc1cc(O)c2c(=O)cc(-c3ccc(O)cc3O)oc2c1CC=C(C)C,47.9,21.5,27.1,,32.4,28.3,39.3,63,86.6,33,83.2,,66.4,27.7
CS(=O)(=O)c1nc(-c2cc3c(c(S(C)(=O)=O)n2)CCC3)cc2c1CCCCC2,> 100,> 100,> 100,,> 100,> 100,80,> 100,> 100,99.6,> 100,34.9,,
CCOC(=O)NC(=O)c1cn(CCOC(=O)CCCCCCCCC(=O)OCCn2cc(C(=O)NC(=O)OCC)c(=O)[nH]c2=O)c(=O)[nH]c1=O,> 100,> 100,,,> 100,> 100,> 100,> 100,> 100,> 100,> 100,,> 100,> 100
CCc1c2c([nH]c(=S)c1C#N)CCC2,> 100,> 100,> 100,,> 100,> 100,> 100,> 100,> 100,> 100,> 100,> 100,> 100,> 100
O=C1/C(=C/c2cccc(F)c2)CCCc2ccccc21,,24.4,29.1,,29,30.1,28.6,34,30.6,23.8,43.6,68.2,,31.1
COc1ccc2c3c1O[C@]1(C)C34CCN(C)C(C2)C42C=C[C@@]1(OC)c1c(O)ccc(O)c12,> 100,> 100,,,> 100,> 100,,> 100,> 100,> 100,> 100,> 100,> 100,> 100
COc1cc2c(oc(=O)c3c4oc([Si](C)(C)C)cc4cc(OC)c23)c2cccc(OCc3ccccc3)c12,> 100,> 100,,,> 100,> 100,37.6,> 100,> 100,> 71.5,> 100,> 73.2,> 100,> 100
Nc1ccnc(=O)[nH]1,> 100,> 100,,,> 100,> 100,> 100,> 100,> 100,> 100,,> 100,> 100,> 100
C[C@]12CCC(=O)C=C1CC[C@@H]1[C@@H]2CC[C@]2(C)C(=O)NC(=O)C[C@@H]12,> 100,> 100,,,> 100,> 100,> 100,> 100,> 100,> 100,> 100,> 100,> 100,> 100
CCOC(=O)N1CCN(C=S)CC1,> 100,> 100,,,> 100,> 100,> 100,> 100,> 100,> 100,> 100,> 100,> 100,> 100
CCOP(=O)(OCC)/C(C#N)=C/c1ncc[nH]1,> 100,> 100,> 100,,> 100,> 100,> 100,> 100,> 100,> 100,> 100,> 100,> 100,> 100
Cc1csc2c(=O)n(C3OC(CO)C(O)C3O)c(=O)[nH]c12 (configuration not stated),> 100,> 100,> 100,,> 100,> 100,,> 100,> 100,> 100,> 100,,> 100,> 100
Cc1cc(=O)n(-c2ccccc2C)c(C)n1,> 100,> 100,,,> 100,> 100,> 100,> 100,> 100,> 100,> 100,> 100,> 100,> 100
COC(=O)C(=O)C(C(=O)C(=O)Nc1ccc(F)cc1)c1nc2ccc([N+](=O)[O-])cc2[nH]c1=O (configuration not stated),> 100,> 100,,,> 100,> 100,,> 100,> 100,> 100,,> 100,> 100,> 100
Cn1cc2ccccc2c1-c1nc(F)nc(F)n1,> 100,> 100,,,> 100,> 100,,> 100,,> 100,> 100,> 100,> 100,> 100
CCCCOC(=O)C1C2CCC(O2)C1C(=O)OCCCC (configuration not stated),> 100,> 100,,,> 65.1,> 60.7,> 100,> 100,> 92.2,> 100,> 100,> 100,> 100,> 47.1
Cn1cc(C(=O)NCCC(=N)N)cc1NC(=O)C1=[N+](C)C=C(NC(=O)c2cccc(C(=O)NC3=CC(C(=O)Nc4cc(C(=O)NCCC(=N)N)cn4C)=[N+](C)C3)c2)C1,> 100,> 100,,,,> 100,> 100,> 100,> 100,> 100,> 100,> 100,> 100,> 100
